The text below walks through data of ChEMBL document CHEMBL4732177 (J Med Chem, 2021).

The target of data set [1] is T1, Neurotensin receptor type 1 (Homo sapiens, UniProt P30989). The data set is described as follows: Displacement of [125I]Tyr3-neurotensin from human recombinant NTS1 stably expressed in CHO cell membranes. The arrangement: species or system Cell membrane. For orientation: In a radioligand displacement assay an active substance lowers the binding of a labelled ligand.

In data set [2] the target is T1, Neurotensin receptor type 1. The data set is described as follows: Displacement of [125I]Tyr3-neurotensin from human recombinant NTS1 stably expressed in CHO-K1 cell membranes incubated for 60 mins by gamma counter analysis. The arrangement: species or system Cell membrane.
The target of data set [3] is Neurotensin receptor type 2 (Homo sapiens, UniProt O95665). The data set is described as follows: Displacement of [125I]Tyr3-neurotensin from human recombinant NTS2 stably expressed in human 1321N1 cell membranes incubated for 60 mins by gamma counter analysis. The arrangement: species or system Cell membrane.
Chain of Neurotensin receptor type 2 (O95665 whole entry): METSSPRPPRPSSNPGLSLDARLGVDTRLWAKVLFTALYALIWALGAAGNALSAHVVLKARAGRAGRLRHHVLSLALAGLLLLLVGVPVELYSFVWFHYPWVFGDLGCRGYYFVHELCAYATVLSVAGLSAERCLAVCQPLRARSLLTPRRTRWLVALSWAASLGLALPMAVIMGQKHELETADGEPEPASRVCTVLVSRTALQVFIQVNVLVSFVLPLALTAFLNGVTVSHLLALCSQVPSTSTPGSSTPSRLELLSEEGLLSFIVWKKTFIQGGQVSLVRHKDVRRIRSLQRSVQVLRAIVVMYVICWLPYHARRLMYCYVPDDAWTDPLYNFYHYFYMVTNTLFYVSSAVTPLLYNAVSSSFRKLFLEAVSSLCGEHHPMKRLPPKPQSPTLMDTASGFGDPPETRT
The nature of data set [4]: Stability of compound in rat plasma assessed as half life at 1 mM incubated for 1 to 20 mins by UPLC-MS analysis. As to conditions: time 1-20 min. In kind it is ADME, cell-free.
Data set [5] in a line: Stability of compound in rat CSF assessed as half life at 1 mM incubated for 24 hrs by UPLC-MS analysis. In kind it is ADME, tissue-based, Cerebrospinal fluid.
Data set [6] has as its system Rattus norvegicus. The data set is described as follows: Antinociceptive activity in Sprague-Dawley rat model assessed as increased in tail withdrawal latency administered intrathecally measured every 10 mins for 60 mins by radiant heat tail-flick test. In kind it is functional, organism-based. As to conditions: dose 10-150 µg/kg. (Thermal pain tests record how soon the animal reacts.)

Data set [7] concerns Rattus norvegicus. Kind of data set: Antinociceptive activity in Sprague-Dawley rat model assessed as maximum efficacy causing increase in tail withdrawal latency administered intrathecally measured every 10 mins for 60 mins by radiant heat tail-flick test. In kind it is functional. As to conditions: 1 h.
Data set [8] deals with Rattus norvegicus. Kind of data set: Antinociceptive activity in Sprague-Dawley rat model assessed as maximum possible effect at 10 microg/kg, IT measured every 10 mins for 60 mins by radiant heat tail-flick test relative to control. In kind it is functional. Particulars: dose 10 µg/kg, 1 h.
For data set [9], the system named is Rattus norvegicus. Kind of data set: Antinociceptive activity in Sprague-Dawley rat model assessed as maximum possible effect at 30 microg/kg, IT measured every 10 mins for 60 mins by radiant heat tail-flick test relative to control. In kind it is functional. As to conditions: dose 30 µg/kg, 1 h.
Data set [10] has as its system Rattus norvegicus. The data set is described as follows: Antinociceptive activity in Sprague-Dawley rat model assessed as maximum possible effect at 60 microg/kg, IT measured every 10 mins for 60 mins by radiant heat tail-flick test relative to control. In kind it is functional. As to conditions: dose 60 µg/kg, 1 h.
Data set [11] concerns Rattus norvegicus. The data set is described as follows: Antinociceptive activity in Sprague-Dawley rat model assessed as maximum possible effect at 90 microg/kg, IT measured every 10 mins for 60 mins by radiant heat tail-flick test relative to control. As to conditions: dose 90 µg/kg, 1 h. In kind it is functional.
Data set [12] has as its system Rattus norvegicus. The data set is described as follows: Antinociceptive activity in Sprague-Dawley rat model assessed as maximum possible effect at 150 microg/kg, IT measured every 10 mins for 60 mins by radiant heat tail-flick test relative to control. Particulars: dose 150 µg/kg, 1 h. In kind it is functional.
Data set [13] deals with Rattus norvegicus. The data set is described as follows: Antinociceptive activity in Sprague-Dawley rat model assessed as effective dose administered intrathecally and measured every 10 mins for 60 mins by radiant heat tail-flick test. In kind it is functional. Particulars: central, 1 h.
Data set [14] concerns Rattus norvegicus. The data set is described as follows: Antinociceptive activity in Sprague-Dawley rat model of formalin-induced nociception pain assessed as reduction in pain behaviour by measuring less lifting of formalin injected hind paw during acute phase at 30 to 150 microg/kg, IT measured for 9 mins. In kind it is functional, organism-based. Particulars: dose 30-150 µg/kg.

Data set [15] concerns Rattus norvegicus. The data set is described as follows: Antinociceptive activity in Sprague-Dawley rat model of formalin-induced nociception pain assessed as reduction in pain behaviour by measuring less lifting of formalin injected hind paw during inflammatory phase at 30 to 150 microg/kg, IT. In kind it is functional, organism-based. As to conditions: dose 30-150 µg/kg, time 21-60 min.

For data set [16], the system named is Rattus norvegicus. The data set is described as follows: Antiallodynic activity in Sprague-Dawley rat model of complete Freund's adjuvant-induced chronic inflammatory pain assessed as increase in paw withdrawl threshold at 150 microg/kg, IT dosed on day 7 and 14 measured at 15 to 120 mins post dose relative to control. Particulars: dose 150 µg/kg; time 7-14 day. In kind it is functional.

Data set [17] can be described thus: Cardiotoxicity in Sprague-Dawley rat assessed as decrease in mean arterial blood pressure at 0.1 mg/kg, iv measured up to 1000 seconds. Particulars: in vivo, time <=1000 sec. In kind it is toxicity, organism-based.
A short description of data set [18]: Cardiotoxicity in Sprague-Dawley rat assessed as induction of […] at 1 mg/kg, iv measured up to 1000 seconds. In kind it is toxicity, organism-based. Particulars: in vivo, 0.2778 h, time 1000 sec.
Data set [19] in a line: Induction of hypothermia in Sprague-Dawley rat assessed as reduction in body temperature at 150 microg/kg, IT measured every 10 mins upto 60 mins by thermistor probe analysis. As to conditions: in vivo, icv_or_intrathecal, 0.15 mg/kg, dose 150 µg/kg.
The test system of a further data set is Ileum. The data set is described as follows: Myorelaxant activity in Sprague-Dawley rat ileum assessed as reduction in carbachol-induced contractions at 10 ^-11 to 10^-5 M by force transducer relaxation assay. In kind it is tissue-based. Particulars: dose lower 1e-05 µM, dose upper 10 µM.
In data set [20] the test system is Rattus norvegicus. The data set is described as follows: Antinociceptive activity in Sprague-Dawley rat model assessed as effective dose administered intrathecally and co-treated with opioid antagonist naloxone and measured every 10 mins for 60 mins by radiant heat tail-flick test. In kind it is functional, organism-based.
Data set [21] in a line: Cardiotoxicity in Sprague-Dawley rat assessed as decrease in mean arterial blood pressure at 0.01 to 1 mg/kg, iv measured up to 1000 seconds. In kind it is toxicity, organism-based. As to conditions: in vivo, dose 0.01-1 mg/kg, time <=1000 sec.
A short description of data set [22]: Induction of hypothermia in Sprague-Dawley rat assessed as drop in body temperature at 30 microg/kg, IT measured every 10 mins upto 60 mins by thermistor probe analysis. Particulars: in vivo, icv_or_intrathecal, 0.03 mg/kg, dose 30 µg/kg.
Data set [23] has as its target T1, Neurotensin receptor type 1. Kind of data set: Displacement of [3H]-neurotensin from NTS1 in human HT-29 cell membrane incubated for 20 mins by liquid scintillation counter analysis. In kind it is cell membranes.
In data set [24] the test system is Rattus norvegicus. Kind of data set: Antinociceptive activity in Sprague-Dawley rat model of formalin-induced nociception pain assessed as reduction in pain behaviour by measuring less lifting of formalin injected hind paw during acute phase at 1 microg/kg, IT measured for 9 mins. Particulars: dose 1.0 µg/kg. In kind it is functional, organism-based.
Data set [25] can be described thus: Toxicity in Sprague-Dawley rat assessed as induction of ataxia at 1 microg/kg, IT. As to conditions: in vivo, icv_or_intrathecal, 0.001 mg/kg, dose 1 µg/kg.
A short description of data set [26]: Toxicity in Sprague-Dawley rat assessed as induction of dizziness at 1 microg/kg, IT. Particulars: in vivo, icv_or_intrathecal, 0.001 mg/kg, dose 1 µg/kg.
Data set [27] is described as follows: Toxicity in Sprague-Dawley rat assessed as induction of tremor at 1 microg/kg, IT. As to conditions: in vivo, icv_or_intrathecal, 0.001 mg/kg, dose 1 µg/kg.
The nature of data set [28]: Toxicity in Sprague-Dawley rat assessed as induction of drowsiness at 1 microg/kg, IT. As to conditions: in vivo, icv_or_intrathecal, 0.001 mg/kg, dose 1 µg/kg.
A short description of data set [29]: Toxicity in Sprague-Dawley rat assessed as induction of abnormal gait at 1 microg/kg, IT. As to conditions: in vivo, icv_or_intrathecal, 0.001 mg/kg, dose 1 µg/kg.
Data set [30] in a line: Toxicity in Sprague-Dawley rat assessed as induction of hyperactivity at 1 microg/kg, IT. As to conditions: in vivo, icv_or_intrathecal, 0.001 mg/kg, dose 1 µg/kg.
The test system of data set [31] is Rattus norvegicus. Kind of data set: Antinociceptive activity in Sprague-Dawley rat model of formalin-induced nociception pain assessed as reduction in pain behaviour by measuring less lifting of formalin injected hind paw during inflammatory phase at 1 microg/kg, IT. Particulars: dose 1.0 µg/kg. In kind it is functional, organism-based.

Structures are written as SMILES. Active and inactive are the calls of the source. Numbered stars: 1 amine (or outer) side, 2 acyl side, 3 side chain; on linkers, the order of the positions; unused ones are H or OH. Bridge positions count the residues as written; N and C are the ends. Square brackets hold non-standard residues; d marks the D form. Peptide text beside a SMILES is read from it. ξ: configuration not given here. X3 = NCCCC[C@H](N)CN([C@@H](CCCCN)C(=O)[*:2])[*:1]; NMeR = CN[C@@H](CCCNC(=N)N)C(=O)O; Tle = CC(C)(C)[C@H](N)C(=O)O; ξP = O=C(O)C1CCCN1

T1 sequence (P30989 whole entry): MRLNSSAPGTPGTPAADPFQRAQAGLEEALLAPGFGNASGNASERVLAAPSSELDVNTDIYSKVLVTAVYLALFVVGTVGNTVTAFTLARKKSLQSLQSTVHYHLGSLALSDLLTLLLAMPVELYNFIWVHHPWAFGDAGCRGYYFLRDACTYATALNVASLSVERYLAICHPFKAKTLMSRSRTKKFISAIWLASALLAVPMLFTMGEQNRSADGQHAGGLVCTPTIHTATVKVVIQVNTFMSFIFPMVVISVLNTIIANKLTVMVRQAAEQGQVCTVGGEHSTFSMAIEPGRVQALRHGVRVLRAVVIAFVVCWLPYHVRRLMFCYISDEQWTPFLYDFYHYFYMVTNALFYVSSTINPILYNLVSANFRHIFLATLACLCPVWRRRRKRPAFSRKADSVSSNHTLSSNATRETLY

As a reminder, the Ki is the dissociation constant of the complex between target and ligand, obtained from inhibition or displacement. As to `CC[C@H](C)[C@H](NC(=O)[C@@H]1Cc2ccc(cc2)OCCCCCC(=O)N[C@H](CCCNC(=N)N)C(=O)N2CCC[C@H]2C(=O)N1)C(=O)N[C@@H](CC(C)C)C(=O)O`, in [1], the Ki stood at 450 nM.
Usually half-life stands for the time in which the quantity being followed falls by half. By ED50 is commonly meant the dose that gives a 50% effect, or the effect in half of the subjects. For the molecule `CC(C)C[C@H](NC(=O)[C@H](Cc1ccc(O)cc1)NC(=O)[C@@H]1C/C=C\C[C@H](N)C(=O)N[C@@H](CCCCN)C(=O)N[C@@H](CCCCN)C(=O)N1)C(=O)O`, the Ki in data set [2] was over 100000 nM; in data set [3] it was 50 nM. Moreover, the half-life at 1000 µM in data set [4] was 15 min; in data set [5] it was over 1440 min. Besides, the Activity entry is “Dose-dependent effect” with Rattus norvegicus [6]; “<=45%” in the data set on Rattus norvegicus [16]; “Non-Toxic” in data set [17]; “Toxic” in data set [18]; “Non-Toxic” in data set [19]; “Non-Toxic” in the data set on Ileum. Further, in data set [21], the Activity entry is recorded as “Non-Toxic”. For the same molecule, the Emax in the data set on Rattus norvegicus [7] is 90 µg/kg. Moreover, the MPE came to 13.1% in the data set with Rattus norvegicus [8]; 32.5% with Rattus norvegicus [9]; 73.1% in the data set on Rattus norvegicus [10]; 98.6% in the data set on Rattus norvegicus [11]; 98.5% with Rattus norvegicus [12]. Moreover, the ED50 in the data set on Rattus norvegicus [13] was determined as 0.0438 mg/kg. Besides, the result in the data set with Rattus norvegicus [14], in the data set with Rattus norvegicus [15] and in the data set with Rattus norvegicus [20] was Active.
For `CCOC(=O)[C@H](CC(C)C)NC(=O)[C@@H](NC(=O)[C@H](Cc1c[nH]c2ccccc12)NC(=O)[C@@H]1CCCN1C(=O)[C@H](CCCCN)NC[C@@H](N)CCCCN)C(C)(C)C` (H-[X3]PW[Tle]L-OEt), the deltaT in data set [22] turned out to be 3 °C.
As to `CC(C)C[C@H](NC(=O)[C@@H]1CCC(=O)NCC(=O)N(C)[C@@H](CCCNC(=N)N)C(=O)N[C@@H](CCCCN)C(=O)N2CCCC2C(=O)N[C@@H](Cc2c[nH]c3ccccc23)C(=O)N1)C(=O)O` (some centres not stated) (G[NMeR]K[ξP]WEL-OH; lactam N-6), the affinity in data set [23], expressed as Ki, was 3500 nM.
On to `CSCC[C@@H]1NC(=O)[C@H](CC(C)C)NC(=O)[C@H](CCCNC(=N)N)NC(=O)[C@H](CO)NC(=O)[C@@H]2CSSC[C@@H]3NC(=O)[C@H](CO)NC(=O)CNC(=O)[C@H]([C@@H](C)O)NC(=O)[C@H](CSSC[C@H](N)C(=O)N[C@@H](CCCCN)C(=O)NCC(=O)N[C@@H](CCCCN)C(=O)NCC(=O)N[C@@H](C)C(=O)N[C@@H](CCCCN)C(=O)N2)NC(=O)[C@H](CSSC[C@@H](C(N)=O)NC(=O)[C@H](CCCCN)NC(=O)CNC(=O)[C@H](CO)NC(=O)[C@H](CCCNC(=N)N)NC3=O)NC(=O)[C@H](CC(=O)O)NC(=O)[C@H](Cc2ccc(O)cc2)NC1=O` [ZICONOTIDE], for which the result in the data set on Rattus norvegicus [24] and in the data set on Rattus norvegicus [31] was Active. The Activity entry in data set [25], in data set [26], in data set [27], in [28], in data set [29] and in data set [30] was “Toxic” throughout.
